Reference: patent US20040157809A1, “Composition comprising an androgen receptor blocker and an insulin sensitizing agent and use thereof for treatment of polycystic ovary syndrome” (priority 2001, published 2004)

Legend:
[1] = tested on: women with ovarian hyperandrogenism; test: Example 1: tolerability and safety variables (blood count, liver-kidney function); format: in vivo, human; settings: flutamide 250 mg/day
Description: After 6 months on either monotherapy or combined therapy, fasting glucose and insulin were reassessed together with serum LH (luteinizing hormone), FSH (Follicle stimulating hormone), estradiol, testosterone, androstenedione, DHEAS, SHBG, and lipid profile. Blood count and liver-kidney function were also screened after 1, 3, and 6 months, as additional safety variables.

[2] = tested on: women with ovarian hyperandrogenism; test: Example 1: ovulation assessment by weekly serum progesterone; format: in vivo, human; settings: after 9 months; weekly serum progesterone measurements
Description: Prior to start of treatment, ovulatory function was documented twice (months −3 and −1) by measuring serum progesterone concentrations in 4 consecutive samples obtained with an interval of 1 week. […] The ovulation results before start of treatment are the average of the results obtained during month -3 and -1, whereas the 3 months results are the mean of those obtained after 2 and 4 months on treatment.

For `CC(C)C(=O)Nc1ccc([N+](=O)[O-])c(C(F)(F)F)c1` [Flutamide, 2-methyl-N-[4-nitro-3(trifluoromethyl)phenyl] popanamide], the “women complaining of dry skin” value [1] was 1 of 10 and the “monthly fraction of ovulatory cycles” value [2] was 20%.
